Results as given in the NIST ThermoML archive (doi:10.1021/je300487n).

Assays:
[1] = for viscosity / mass density: 101.33 kPa, Liquid; for viscosity: Concentric cylinders viscometry; for mass density: Vibrating tube method; for surface tension liquid-gas: Drop volume
[2] = refractive index (Na D-line) (dimensionless); details: 101.33 kPa, Liquid, Standard Abbe refractometry

CC(=O)[O-].CCCC[N+]1(C)CCCC1 [1-butyl-1-methylpyrrolidinium acetate]
Details	mass density, [1] [kg/m3]	refractive index, [2]	surface tension liquid-gas, [1] [mN/m]	viscosity, [1] [mPa·s]
283.15 K	–	1.47263	–	–
288.15 K	–	1.47144	–	–
293.15 K	–	1.47075	–	–
298.15 K	1021.2	1.46998	–	106.63
298.3 K	–	–	37.4	–
303.15 K	1018.1	1.46868	–	79.92
307.9 K	–	–	36.8	–
308.15 K	1015.1	1.46736	–	61.34
313.15 K	1012.1	1.46603	–	48.45
318 K	–	–	36.4	–
318.15 K	1009.2	1.46461	–	38.34
323.15 K	1006.2	1.4632	–	31.1
328.15 K	1003.3	1.46178	–	25.61
328.4 K	–	–	36.1	–
333.15 K	1000.4	1.46042	–	21.64
338.15 K	997.8	1.459	–	18.05
338.5 K	–	–	35.6	–
343.15 K	994.9	1.45755	–	15.42
343.6 K	–	–	34.4	–
348.15 K	992	1.45619	–	13.3
353.15 K	989.2	1.45479	–	11.84
358.15 K	986.3	–	–	10.16
363.15 K	983.5	–	–	8.983

CC(=O)[O-].CCCCn1cc[n+](C)c1 [1-butyl-3-methylimidazolium acetate]
Details	mass density, [1] [kg/m3]	refractive index, [2]	surface tension liquid-gas, [1] [mN/m]	viscosity, [1] [mPa·s]
283.15 K	1062.2	1.49269	–	1037.2
288.15 K	1058.9	1.49158	–	658.84
293.15 K	1055.5	1.49021	–	429.11
298 K	–	–	36.4	–
298.15 K	1052.3	1.4889	–	297.39
303.15 K	1049.2	1.48725	–	209.65
307.8 K	–	–	35.9	–
308.15 K	1046.1	1.4858	–	152.07
313.15 K	1043	1.48438	–	112.23
318 K	–	–	35.5	–
318.15 K	1040	1.48297	–	86.07
323.15 K	1037	1.4806	–	66.82
328.15 K	1034	1.47915	–	52.84
328.6 K	–	–	35.1	–
333.15 K	1031	1.4777	–	42.67
338.15 K	1028	1.47624	–	34.66
339 K	–	–	34.7	–
343.15 K	1025	1.47463	–	28.69
348.15 K	1022.1	1.47318	–	24.04
353.15 K	1019.1	1.4718	–	20.76
358.15 K	1016.2	–	–	17.45
363.15 K	1013.3	–	–	15.08

CC(=O)[O-].CCn1cc[nH+]c1 [1-ethyl-1H-imidazolium acetate]
Details	mass density, [1] [kg/m3]	refractive index, [2]	surface tension liquid-gas, [1] [mN/m]	viscosity, [1] [mPa·s]
283.15 K	1047.2	1.46347	–	7.88
288.15 K	1042.9	1.4616	–	6.669
293.15 K	1038.5	1.45966	–	5.291
298.1 K	–	–	37.8	–
298.15 K	1034.2	1.45769	–	4.955
303.15 K	1029.9	1.45576	–	4.337
307.8 K	–	–	36.7	–
308.15 K	1025.6	1.45379	–	3.828
313.15 K	1021.3	1.45185	–	3.225
318.15 K	1017	1.44985	–	3.051
318.5 K	–	–	36.1	–
323.15 K	1012.7	1.44791	–	2.75
328.15 K	1008.4	1.44593	–	2.492
328.3 K	–	–	35	–
333.15 K	1004.1	1.44395	–	2.171
338.15 K	999.8	1.44197	–	2.078
339.9 K	–	–	33.7	–
343.15 K	995.8	1.44	–	1.91
344.2 K	–	–	33.3	–
348.15 K	991.5	1.438	–	1.762
353.15 K	987.2	1.43607	–	1.547
358.15 K	982.8	–	–	1.515
363.15 K	978.5	–	–	1.412

CC(=O)[O-].CCn1cc[n+](C)c1 [1-ethyl-3-methylimidazolium acetate]
[2]
Details	refractive index
283.15 K	1.50402
288.15 K	1.50267
293.15 K	1.50129
298.15 K	1.49992
303.15 K	1.49854
308.15 K	1.49718
313.15 K	1.49581
318.15 K	1.49447
323.15 K	1.49307
328.15 K	1.49171
333.15 K	1.49035
338.15 K	1.48899
343.15 K	1.48756
348.15 K	1.48613
353.15 K	1.48476

CC(=O)O.CCN(C)C [N,N-dimethylethanamine acetate]
Details	mass density, [1] [kg/m3]	refractive index, [2]	surface tension liquid-gas, [1] [mN/m]	viscosity, [1] [mPa·s]
283.15 K	1028	1.42303	–	26.22
288.15 K	1024	1.42143	–	20.89
293.15 K	1020.1	1.41983	–	16.36
298.15 K	1016.1	1.41819	–	13.97
298.2 K	–	–	33.5	–
303.15 K	1012.2	1.41655	–	11.68
308.1 K	–	–	32.7	–
308.15 K	1008.3	1.41492	–	9.888
313.15 K	1004.4	1.41328	–	8.275
318 K	–	–	32.1	–
318.15 K	1000.5	1.41156	–	7.316
323.15 K	996.8	1.40991	–	6.381
328.15 K	992.9	1.4082	–	5.611
328.4 K	–	–	31.3	–
333.15 K	989	1.40649	–	4.869
338.15 K	985	1.40476	–	4.427
338.2 K	–	–	30.5	–
343.15 K	981.1	1.40312	–	3.97
348.15 K	977.2	1.40138	–	3.578
353.15 K	973.1	1.39963	–	3.132
358.15 K	969.1	–	–	2.943
363.15 K	965.1	–	–	2.691
